Measured values from US6358885B1, “Substituted phenylheterocyclic herbicides” (Mississippi State University, priority 1992, dated 2002).

Experiments:
Assay in all cases: Test B preemergence/postemergence greenhouse plant response rating 0 to 10
[1] = system: corn; format: in vivo, Zea mays; settings: for Plant response rating, Corn: 0 to 10 scale
Outline: (§1)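 Test chemicals were sprayed onto freshly planted seed and, concurrently, onto young plants between the one and four leaf stage. After a twelve- to sixteen-day greenhouse period, each species was visually compared with untreated controls.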

[2] = system: morningglory; format: in vivo, Ipomoea hederacea; settings: for Plant response rating, Morningglory: 0 to 10 scale
Outline: as §1

[3] = system: purple nutsedge; format: in vivo, Cyperus rotundus; settings: for Plant response rating, Nutsedge: 0 to 10 scale
Outline: as §1

[4] = system: cheatgrass; format: in vivo, Bromus secalinus; settings: for Plant response rating, Cheatgrass: 0 to 10 scale
Outline: as §1

[5] = system: rice; format: in vivo, Oryza sativa; settings: for Plant response rating, Rice: 0 to 10 scale
Outline: as §1

[6] = system: cocklebur; format: in vivo, Xanthium pensylvanicum; settings: for Plant response rating, Cocklebur: 0 to 10 scale
Outline: as §1

[7] = system: sorghum; format: in vivo, Sorghum bicolor; settings: for Plant response rating, Sorghum: 0 to 10 scale
Outline: as §1

[8] = system: barnyardgrass; format: in vivo, Echinochloa crus-galli; settings: for Plant response rating, Barnyardgrass: 0 to 10 scale
Outline: as §1

[9] = system: crabgrass; format: in vivo, Digitaria spp.; settings: for Plant response rating, Crabgrass: 0 to 10 scale
Outline: as §1

[10] = system: chickweed; format: in vivo, Stellaria media; settings: for Plant response rating, Chickweed: 0 to 10 scale
Outline: as §1

[11] = system: soybean; format: in vivo, Glycine max; settings: for Plant response rating, Soybean: 0 to 10 scale
Outline: as §1

[12] = system: barley; format: in vivo, Hordeum vulgare; settings: for Plant response rating, Barley: 0 to 10 scale
Outline: as §1

[13] = system: wild oat; format: in vivo, Avena fatua; settings: for Plant response rating, Wild oat: 0 to 10 scale
Outline: as §1

[14] = system: cotton; format: in vivo, Gossypium hirsutum; settings: for Plant response rating, Cotton: 0 to 10 scale
Outline: as §1

[15] = system: velvetleaf; format: in vivo, Abutilon theophrasti; settings: for Plant response rating, Velvetleaf: 0 to 10 scale
Outline: as §1

[16] = system: lambsquarters; format: in vivo, Chenopodium album; settings: for Plant response rating, Lambsquarter: 0 to 10 scale
Outline: as §1

[17] = system: wild buckwheat; format: in vivo, Polygonum convolvulus; settings: for Plant response rating, Wild buckwheat: 0 to 10 scale
Outline: as §1

[18] = system: blackgrass; format: in vivo, Alopecurus myosuroides; settings: for Plant response rating, Blackgrass: 0 to 10 scale
Outline: as §1

[19] = system: sugar beet; format: in vivo, Beta vulgaris; settings: for Plant response rating, Sugar beet: 0 to 10 scale
Outline: as §1

[20] = system: giant foxtail; format: in vivo, Setaria faberii; settings: for Plant response rating, Giant foxtail: 0 to 10 scale
Outline: as §1

[21] = system: bedstraw; format: in vivo, Galium aparine; settings: for Plant response rating, Bedstraw: 0 to 10 scale
Outline: as §1

[22] = system: wheat; format: in vivo, Triticum aestivum; settings: for Plant response rating, Wheat: 0 to 10 scale
Outline: as §1

[23] = system: rape; format: in vivo, Brassica napus; settings: for Plant response rating, Rape: 0 to 10 scale
Outline: as §1

C#CC(C)Oc1cc(-c2nn3c(c2Cl)CCCC3)c(Cl)cc1Cl (centres unmarked) [Compound 74]
Plant response rating, Corn ([1]; POSTEMERGENCE, Rate 50 g/ha): 2
Plant response rating, Corn ([1]; PREEMERGENCE, Rate 50 g/ha): 0
Plant response rating (0 to 10 scale), Corn ([1]; PREEMERGENCE, Rate 200 g/ha): 0
Plant response rating, Corn ([1]; Rate 200 g/ha, POSTEMERGENCE): 4
Plant response rating, Morningglory ([2]; POSTEMERGENCE, Rate 50 g/ha): 9
Plant response rating, Morningglory ([2]; PREEMERGENCE, Rate 50 g/ha): 0
Plant response rating (0 to 10 scale), Morningglory ([2]; PREEMERGENCE, Rate 200 g/ha): 0
Plant response rating, Morningglory ([2]; Rate 200 g/ha, POSTEMERGENCE): 9
Plant response rating, Nutsedge ([3]; POSTEMERGENCE, Rate 50 g/ha): 2
Plant response rating, Nutsedge ([3]; PREEMERGENCE, Rate 50 g/ha): 0
Plant response rating (0 to 10 scale), Nutsedge ([3]; PREEMERGENCE, Rate 200 g/ha): 0
Plant response rating, Nutsedge ([3]; Rate 200 g/ha, POSTEMERGENCE): 2
Plant response rating, Cheatgrass ([4]; POSTEMERGENCE, Rate 50 g/ha): 6
Plant response rating, Cheatgrass ([4]; PREEMERGENCE, Rate 50 g/ha): 4
Plant response rating (0 to 10 scale), Cheatgrass ([4]; PREEMERGENCE, Rate 200 g/ha): 4
Plant response rating, Cheatgrass ([4]; Rate 200 g/ha, POSTEMERGENCE): 6
Plant response rating, Rice ([5]; POSTEMERGENCE, Rate 50 g/ha): 3
Plant response rating, Rice ([5]; PREEMERGENCE, Rate 50 g/ha): 0
Plant response rating (0 to 10 scale), Rice ([5]; PREEMERGENCE, Rate 200 g/ha): 0
Plant response rating, Rice ([5]; Rate 200 g/ha, POSTEMERGENCE): 6
Plant response rating, Cocklebur ([6]; POSTEMERGENCE, Rate 50 g/ha): 9
Plant response rating, Cocklebur ([6]; PREEMERGENCE, Rate 50 g/ha): 0
Plant response rating (0 to 10 scale), Cocklebur ([6]; PREEMERGENCE, Rate 200 g/ha): 0
Plant response rating, Cocklebur ([6]; Rate 200 g/ha, POSTEMERGENCE): 10
Plant response rating, Sorghum ([7]; POSTEMERGENCE, Rate 50 g/ha): 5
Plant response rating, Sorghum ([7]; PREEMERGENCE, Rate 50 g/ha): 0
Plant response rating (0 to 10 scale), Sorghum ([7]; PREEMERGENCE, Rate 200 g/ha): 0
Plant response rating, Sorghum ([7]; Rate 200 g/ha, POSTEMERGENCE): 7
Plant response rating, Barnyardgrass ([8]; POSTEMERGENCE, Rate 50 g/ha): 5
Plant response rating, Barnyardgrass ([8]; PREEMERGENCE, Rate 50 g/ha): 0
Plant response rating (0 to 10 scale), Barnyardgrass ([8]; PREEMERGENCE, Rate 200 g/ha): 1
Plant response rating, Barnyardgrass ([8]; Rate 200 g/ha, POSTEMERGENCE): 7
Plant response rating, Crabgrass ([9]; POSTEMERGENCE, Rate 50 g/ha): 3
Plant response rating, Crabgrass ([9]; PREEMERGENCE, Rate 50 g/ha): 2
Plant response rating (0 to 10 scale), Crabgrass ([9]; PREEMERGENCE, Rate 200 g/ha): 6
Plant response rating, Crabgrass ([9]; Rate 200 g/ha, POSTEMERGENCE): 5
Plant response rating, Chickweed ([10]; POSTEMERGENCE, Rate 50 g/ha): 6
Plant response rating, Chickweed ([10]; PREEMERGENCE, Rate 50 g/ha): 0
Plant response rating (0 to 10 scale), Chickweed ([10]; PREEMERGENCE, Rate 200 g/ha): 5
Plant response rating, Chickweed ([10]; Rate 200 g/ha, POSTEMERGENCE): 7
Plant response rating, Soybean ([11]; POSTEMERGENCE, Rate 50 g/ha): 6
Plant response rating, Soybean ([11]; PREEMERGENCE, Rate 50 g/ha): 0
Plant response rating (0 to 10 scale), Soybean ([11]; PREEMERGENCE, Rate 200 g/ha): 0
Plant response rating, Soybean ([11]; Rate 200 g/ha, POSTEMERGENCE): 6
Plant response rating, Barley ([12]; POSTEMERGENCE, Rate 50 g/ha): 2
Plant response rating, Barley ([12]; PREEMERGENCE, Rate 50 g/ha): 0
Plant response rating (0 to 10 scale), Barley ([12]; PREEMERGENCE, Rate 200 g/ha): 0
Plant response rating, Barley ([12]; Rate 200 g/ha, POSTEMERGENCE): 4
Plant response rating, Wild oat ([13]; POSTEMERGENCE, Rate 50 g/ha): 4
Plant response rating, Wild oat ([13]; PREEMERGENCE, Rate 50 g/ha): 0
Plant response rating (0 to 10 scale), Wild oat ([13]; PREEMERGENCE, Rate 200 g/ha): 3
Plant response rating, Wild oat ([13]; Rate 200 g/ha, POSTEMERGENCE): 4
Plant response rating, Cotton ([14]; POSTEMERGENCE, Rate 50 g/ha): 10
Plant response rating, Cotton ([14]; PREEMERGENCE, Rate 50 g/ha): 0
Plant response rating (0 to 10 scale), Cotton ([14]; PREEMERGENCE, Rate 200 g/ha): 0
Plant response rating, Cotton ([14]; Rate 200 g/ha, POSTEMERGENCE): 10
Plant response rating, Velvetleaf ([15]; POSTEMERGENCE, Rate 50 g/ha): 10
Plant response rating, Velvetleaf ([15]; PREEMERGENCE, Rate 50 g/ha): 5
Plant response rating (0 to 10 scale), Velvetleaf ([15]; PREEMERGENCE, Rate 200 g/ha): 9
Plant response rating, Velvetleaf ([15]; Rate 200 g/ha, POSTEMERGENCE): 10
Plant response rating, Lambsquarter ([16]; POSTEMERGENCE, Rate 50 g/ha): 9
Plant response rating, Lambsquarter ([16]; PREEMERGENCE, Rate 50 g/ha): 9
Plant response rating (0 to 10 scale), Lambsquarter ([16]; PREEMERGENCE, Rate 200 g/ha): 10
Plant response rating, Lambsquarter ([16]; Rate 200 g/ha, POSTEMERGENCE): 10
Plant response rating, Wild buckwheat ([17]; POSTEMERGENCE, Rate 50 g/ha): 10
Plant response rating, Wild buckwheat ([17]; PREEMERGENCE, Rate 50 g/ha): 5
Plant response rating (0 to 10 scale), Wild buckwheat ([17]; PREEMERGENCE, Rate 200 g/ha): 9
Plant response rating, Wild buckwheat ([17]; Rate 200 g/ha, POSTEMERGENCE): 10
Plant response rating, Blackgrass ([18]; POSTEMERGENCE, Rate 50 g/ha): 6
Plant response rating, Blackgrass ([18]; PREEMERGENCE, Rate 50 g/ha): 0
Plant response rating (0 to 10 scale), Blackgrass ([18]; PREEMERGENCE, Rate 200 g/ha): 8
Plant response rating, Blackgrass ([18]; Rate 200 g/ha, POSTEMERGENCE): 6
Plant response rating, Sugar beet ([19]; POSTEMERGENCE, Rate 50 g/ha): 10
Plant response rating, Sugar beet ([19]; PREEMERGENCE, Rate 50 g/ha): 0
Plant response rating (0 to 10 scale), Sugar beet ([19]; PREEMERGENCE, Rate 200 g/ha): 10
Plant response rating, Sugar beet ([19]; Rate 200 g/ha, POSTEMERGENCE): 10
Plant response rating, Giant foxtail ([20]; POSTEMERGENCE, Rate 50 g/ha): 5
Plant response rating, Giant foxtail ([20]; PREEMERGENCE, Rate 50 g/ha): 2
Plant response rating (0 to 10 scale), Giant foxtail ([20]; PREEMERGENCE, Rate 200 g/ha): 6
Plant response rating, Giant foxtail ([20]; Rate 200 g/ha, POSTEMERGENCE): 5
Plant response rating, Bedstraw ([21]; POSTEMERGENCE, Rate 50 g/ha): 8
Plant response rating, Bedstraw ([21]; PREEMERGENCE, Rate 50 g/ha): 0
Plant response rating (0 to 10 scale), Bedstraw ([21]; PREEMERGENCE, Rate 200 g/ha): 9
Plant response rating, Bedstraw ([21]; Rate 200 g/ha, POSTEMERGENCE): 9
Plant response rating, Wheat ([22]; POSTEMERGENCE, Rate 50 g/ha): 4
Plant response rating, Wheat ([22]; PREEMERGENCE, Rate 50 g/ha): 0
Plant response rating (0 to 10 scale), Wheat ([22]; PREEMERGENCE, Rate 200 g/ha): 0
Plant response rating, Wheat ([22]; Rate 200 g/ha, POSTEMERGENCE): 5
Plant response rating, Rape ([23]; POSTEMERGENCE, Rate 50 g/ha): 10
Plant response rating, Rape ([23]; PREEMERGENCE, Rate 50 g/ha): 0
Plant response rating (0 to 10 scale), Rape ([23]; PREEMERGENCE, Rate 200 g/ha): 7
Plant response rating, Rape ([23]; Rate 200 g/ha, POSTEMERGENCE): 10
